pEC50: −log10 of the molar value.
Columns and labels:
[1] = system: NQO1 specific enzyme activity in BEAS-2B cells (marker for NRF2 activation); test: Beas2B NQO1 MTT Assay; assay type: cell-based; details: Homo sapiens, NQO1 specific activity induction, 48 hours with compound
From the text: NAD(P)H:quinone oxidoreductase 1 (NQO1), also called DT diaphorase, is a homodimeric FAD-containing enzyme that catalyses obligatory NAD(P)H-dependent two-electron reductions of quinones and protects cells against the toxic and neoplastic effects of free radicals and reactive oxygen species arising from one-electron reductions. The transcription of NQO1 is finely regulated by NRF2, and thus NQO1 activity is a good marker for NRF2 activation. On day one, frozen BEAS-2B cells (ATCC) were thawed in a water bath, counted, and re-suspended at a concentration of 250,000 cells/mL. Fifty microliters of cells were plated in 384 well black clear-bottomed plates. Plates were incubated at 37° C., 5% CO2 overnight. On day two, plates were centrifuged and 50 nL of compound or controls were added to the cells. Plates were then incubated at 37° C., 5% CO2 for 48 hours. On day four, medium was aspirated from the plate and crude cell lysates were made by adding 13 uL of 1× Cell Signaling Technologies lysis buffer with 1 Complete, Mini, EDTA-free Protease Inhibitor Tablet (Roche) for each 10 mL of lysis buffer. After lysis plates were incubated for 20 minutes at room temperature. Two microliters of lysate were removed for use in Cell Titer Glo assay (Promega) and MTT cocktail was prepared (Prochaska et. al. 1998) for measurement of NQO1 activity. Fifty microliters of MTT cocktail was added to each well, plate was centrifuged, and analysed on an Envision plate reader (Perkin Elmer) using Absorbance 570 nm label for 30 minutes. Product formation was measured kinetically and the pEC50 of NQO1 specific activity induction was calculated by plotting the change in absorbance (Delta OD/min) versus the log of compound concentration followed by 3-parameter fitting.
EC50s <1 nM (+++++), EC50s 10 nM-1 nM (++++), EC50s 10-100 nM (+++), EC50s 100 nM-1 μM (++), EC50s 1-10 μM (+), EC50s >10 μM (−), or were not determined (ND).

[2] = target: T1, Keap1 (321-609) Kelch domain / TAMRA-labeled 16mer NRF2 peptide (ETGE motif) (Homo sapiens, UniProt Q14145); test: NRF2-Keap1 FP Assay; assay type: binding; details: 20 nM Keap1 (321-609), 8 nM Tamra labeled peptide
T1 construct: the Kelch domain (321-609) of Keap1 is used
From the text: One model for the NRF2-Keap1 interaction is through two binding sites in the Neh2 domain on NRF2. The two sites are referred to as the DLG binding motif (latch domain, uM affinity) and the ETGE binding motif (hinge domain, nM affinity). The Keap1 protein consists of an N-terminal region (NTR), a broad complex, tramtrack, and brick a'brac domain (BTB), an intervening region (IVR), a double glycine repeat domain (DGR or Kelch), and a C-terminal region. The DLG and ETGE motifs of NRF2's Neh2 domain bind to the Kelch domain of Keap1 at different affinities. In the Keap1 Kelch fluorescence polarization (FP) assay, a TAMRA-labeled 16mer peptide (AFFAQLQLDEETGEFL) containing the ETGE motif of NRF2 and the Kelch domain (321-609) of Keap1 is used. The assay determines if a compound interferes with the binding between Keap1 […] and the TAMRA-labeled peptide. Binding of TAMRA-labeled NRF2 peptide to Keap1 (321-609) results in a high FP signal. If a compound interferes with the binding between the peptide and the protein, it will cause the assay signal to decrease. Thus, assay signal is inversely proportional to binding inhibition.
100 nl of 100× compound dose response curves (serial 3-fold dilutions) in DMSO were stamped using an Echo liquid handling system (Labcyte) into 384-well low volume black assay plates (Greiner, #784076), with DMSO in columns 6 and 18. The top concentration of compound was located in columns 1 and 13. Keap1 (321-609) was diluted to 40 nM (2×) in 1× assay buffer (50 mM Tris, pH 8.0, 100 mM NaCl, 5 mM MgCl2, 1 mM DTT, 2 mM CHAPS, and 0.005% BSA) and 5 ul was added using a Multidrop Combi (Thermo Electron Corporation) equipped with a metal tip dispenser to all wells of the compound plate, except column 18. Column 18 received only 5 ul of assay buffer. Immediately, 5 uL of 16 nM (2×) of Tamra labeled peptide (AFFAQLQLDEETGEFL, 21st Century Biochemicals) was added to all wells of the plate. The plates were spun at 500 rpm for 1 min, incubated for 1 hr at room temperature, and read on an Analyst GT (Molecular Devices) equipped with excitation (530/25 nm) and emission (580/10 nm) filters designed for Tamra probes. A 561 nm dichroic mirror was also used in the Analyst. The final assay concentrations of Keap1 (321-609) and Tamra labeled peptide were 20 nM and 8 nM, respectively. Fluorescence measurements, represented as mP, were used in the transformation of the data. Compound activity was calculated based on percent inhibition, normalized against controls in the assay (Control 1 contains the Tamra peptide and Keap1 (321-609) together (0% response) and control 2 contains the Tamra peptide alone (100% response)). Data analysis was handled using the software package Abase XE (Surrey, United Kingdom. The % inhibition values were calculated by the equation:
100−(100*((compound response−average control 2)/(average control 1−average control2))). For calculation of pIC50s, Abase XE uses a four parameter equation.
IC50s<1 nM (+++++), IC50s 1 nM-10 nM (++++), IC50s 10-100 nM (+++), IC50s 100 nM-1 μM (++), IC50s 1-10 μM (+), IC50s >10 μM (−), or were not determined (ND).

T1 sequence (Q14145 321-609): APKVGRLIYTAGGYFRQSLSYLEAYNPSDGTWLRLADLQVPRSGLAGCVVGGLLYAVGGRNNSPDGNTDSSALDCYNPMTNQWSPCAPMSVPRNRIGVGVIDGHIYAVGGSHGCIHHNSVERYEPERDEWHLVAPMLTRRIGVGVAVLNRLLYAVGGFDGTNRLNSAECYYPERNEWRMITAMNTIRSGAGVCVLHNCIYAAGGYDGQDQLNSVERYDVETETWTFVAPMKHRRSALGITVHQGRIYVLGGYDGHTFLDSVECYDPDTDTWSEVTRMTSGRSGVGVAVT

SMILES	pEC50 [1]	pEC50 [2]
CCC[C@@H]1CCCCN1C(=O)c1cccc(-c2cccc(-n3ccc(C(=O)O)c3[C@@H]3C[C@H]3c3cn(C)nn3)c2)c1F (racemic) [Example 15, 1-(2′-fluoro-3′-((R)-2-propylpiperidine-1-carbonyl)-[1,1′-biphenyl]-3-yl)-2-(trans-2-(1-methyl-1H-1,2,3-triazol-4-yl)cyclopropyl)-1H-pyrrole-3-carboxylic acid]	8.00 to 9.00	7.00 to 8.00
C[C@H]1Cc2cc(C(F)(F)F)ccc2S(=O)(=O)N(Cc2cccc(-n3ccc(C(=O)O)c3[C@@H]3C[C@H]3c3cn(C)nn3)c2)C1 (racemic) [Example 2, 1-(3-(((S)-4-methyl-1,1-dioxido-7-(trifluoromethyl)-4,5-dihydrobenzo[f][1,2]thiazepin-2(3H)-yl)methyl)phenyl)-2-(trans-2-(1-methyl-1H-1,2,3-triazol-4-yl)cyclopropyl)-1H-pyrrole-3-carboxylic acid]	7.00 to 8.00	7.00 to 8.00
C[C@H]1Cc2ccc(Br)cc2S(=O)(=O)N(Cc2cccc(-n3ccc(C(=O)O)c3[C@@H]3C[C@H]3c3cn(C)nn3)c2)C1 [Example 8, 1-(3-(((S)-8-bromo-4-methyl-1,1-dioxido-4,5-dihydrobenzo[f][1,2]thiazepin-2(3H)-yl)methyl)phenyl)-2-((1R,2R)-2-(1-methyl-1H-1,2,3-triazol-4-yl)cyclopropyl)-1H-pyrrole-3-carboxylic acid]	8.00 to 9.00	7.00 to 8.00
CC[C@H]1Cc2ccc(Br)cc2S(=O)(=O)N(Cc2cccc(-n3ccc(C(=O)O)c3[C@@H]3C[C@H]3c3cn(C)nn3)c2)C1 [Example 9, 1-(3-(((S)-8-bromo-4-ethyl-1,1-dioxido-4,5-dihydrobenzo[f][1,2]thiazepin-2(3H)-yl)methyl)phenyl)-2-((1R,2R)-2-(1-methyl-1H-1,2,3-triazol-4-yl)cyclopropyl)-1H-pyrrole-3-carboxylic acid]	> 9.00	7.00 to 8.00
Cn1cc([C@@H]2C[C@H]2c2c(C(=O)O)ccn2-c2cccc(CN3Cc4cc(F)ccc4OC(C)(C)C3)c2)nn1 (racemic) [Example 19]	6.00 to 7.00	7.00 to 8.00
CCC[C@@H]1CCCCN1C(=O)c1cc(F)cc(-c2cccc(-n3ccc(C(=O)O)c3[C@@H]3C[C@H]3c3cn(C)nn3)c2)c1 [Example 23]	7.00 to 8.00	7.00 to 8.00
Cn1cc([C@@H]2C[C@H]2c2c(C(=O)O)ccn2-c2cccc(CN3Cc4ccccc4CC(C)(C)C3)c2)nn1 (racemic) [Example 21]	6.00 to 7.00	7.00 to 8.00
CC[C@H]1Cc2cc(C(F)(F)F)ccc2S(=O)(=O)N(Cc2cccc(-n3ccc(C(=O)O)c3[C@@H]3C[C@H]3c3cn(C)nn3)c2)C1 [Example 7, 1-(3-(((S)-4-ethyl-1,1-dioxido-7-(trifluoromethyl)-4,5-dihydrobenzo[f][1,2]thiazepin-2(3H)-yl)methyl)phenyl)-2-((1R,2R)-2-(1-methyl-1H-1,2,3-triazol-4-yl)cyclopropyl)-1H-pyrrole-3-carboxylic acid]	8.00 to 9.00	7.00 to 8.00
CCC[C@@H]1CCCCN1C(=O)c1cccc(-c2cccc(-n3ccc(C(=O)O)c3[C@@H]3C[C@H]3c3cn(C)nn3)c2)c1 (racemic) [Example 14, 2-(trans-2-(1-methyl-1H-1,2,3-triazol-4-yl)cyclopropyl)-1-(3′-((R)-2-propylpiperidine-1-carbonyl)-[1,1′-biphenyl]-3-yl)-1H-pyrrole-3-carboxylic acid]	7.00 to 8.00	7.00 to 8.00
CCCC[C@H]1Cc2ccccc2S(=O)(=O)N(Cc2cccc(-n3ccc(C(=O)O)c3[C@@H]3C[C@H]3c3cn(C)nn3)c2)C1 [Example 3, 1-(3-(((S)-4-butyl-1,1-dioxido-4,5-dihydrobenzo[f][1,2]thiazepin-2(3H)-yl)methyl)phenyl)-2-((1R,2R)-2-(1-methyl-1H-1,2,3-triazol-4-yl)cyclopropyl)-1H-pyrrole-3-carboxylic acid]	7.00 to 8.00	7.00 to 8.00
